{"source": "patent US8227457B2", "about": "“Method for treatment of diseases” (DMI Acquisition Corp., priority 2009, dated 2012)", "key": {"[1]": {"tested_on": "human retinal endothelial cells", "assay": "TER of retinal endothelial cell monolayers with steroid receptor antagonists and hormones, Example 10", "conditions": "Example 10, concentrations of Table 10"}, "[2]": {"tested_on": "human retinal endothelial cells", "assay": "ECIS (electric cell-substrate impedance sensing), Example 12, retinal cells"}, "[3]": {"tested_on": "human renal glomerular microvascular endothelial cells", "assay": "ECIS, Example 12, glomerular cells", "conditions": "danazol 1 μM, S1P 1 μM"}, "[4]": {"tested_on": "human retinal endothelial cells", "assay": "Actin stress fiber formation (rhodamine-phalloidin F-actin staining), VEGF, Example 8", "assay_type": "cell-based", "conditions": "VEGF 25 ng/ml alone, 30 minutes", "procedure": ". […] To counter-stain for nuclei, 100 μl of a 3 μM DAPI (4,6-diamidino-2-phenylindole, dilactate (Invitrogen)) solution was added to each well. After 5 minutes, the cells were washed two times with 100 μl PBS."}, "VE-Cadherin": {"tested_on": "VE-Cadherin", "assay": "VE-cadherin phosphorylation (immunoprecipitation, Pro-Q diamond / SYPRO ruby densitometry)", "assay_type": "cell-based, human", "conditions": "danazol 0.1 μM, VEGF 50 ng/ml", "procedure": "The plates were immediately treated to lyse the cells as follows. PBS and the lysis buffer (PBS containing 1% Triton X-100 supplemented with phosphatase inhibitor solutions 1 and 2 (Sigma), protease inhibitor (Sigma) and sodium orthovanadate at a final concentration of 2 mM) were cooled to 4° C. The cells were washed two times with 5 ml of the ice cold PBS and then lysed in 500 μl of the ice cold lysis buffer. The resulting protein extracts were transferred to 1.7 ml microcentrifuge tubes, and cell debris was removed by spinning at 4° C. at 10,000 rpm for 10 minutes. Then, 450 μl of the cleared solution was transferred to tubes containing 25 μl of Protein Dynabeads (Invitrogen) coated with 10 μl C19 anti-VE cadherin polyclonal antibody (Santa Cruz Biotechnology) (coating performed following manufacturer's protocol). The extracts and beads were then incubated overnight at 4° C. on an orbital shaker to capture VE cadherin from the extracts. The beads were then washed four times with ice cold lysis buffer. To release the protein from the beads, they were heated for 10 minutes at 75° C. in SDS loading dye containing 20% reducing dye (Invitrogen).\nThe released proteins were separated in 4-20% polyacrylamide gels (Invitrogen) at 120 volts for 1 hour. To determine phosphorylation and total protein in the gels, Pro-Q diamond (Invitrogen) and SYPRO ruby (Invitrogen) protein staining were sequentially performed following the manufacturer's protocol. The gels were photographed and densitometry performed using a Kodak imaging station."}, "[5]": {"tested_on": "human retinal endothelial cells", "assay": "Actin stress fiber formation (rhodamine-phalloidin F-actin staining), TNFα, Example 7", "conditions": "TNFα 50 ng/ml alone, 30 minutes"}, "[6]": {"tested_on": "human retinal endothelial cells", "assay": "TER of retinal endothelial cell monolayers with steroid receptor antagonists, Example 6", "conditions": "0.1 μM, Example 6"}}}
{"molecule": "C[C@]12CC[C@H]3[C@@H](CCC4=CC(=O)CC[C@@]43C)[C@@H]1CC[C@@H]2O", "note": "[Testosterone, testosterone]", "values": [{"measurement": "effect on TER compared to the control", "setting": "[1]", "value": "reduced the readings very slightly"}]}
{"molecule": "CCCCCCCCCCCCC/C=C/[C@@H](O)[C@@H](N)COP(=O)(O)O", "note": "[S1P, sphingosine-1 phosphate]", "values": [{"measurement": "start of increase of ECIS as compared to untreated cells, after treatment", "setting": "[2]; S1P 1 μM alone", "value": "≤ 15", "unit": "min"}, {"measurement": "persistence of increase of ECIS", "setting": "[2]; danazol 1.0 μM, S1P 1 μM", "value": "about 3 hours"}, {"measurement": "time after treatment until which there was no effect on ECIS", "setting": "[3]", "value": "about 30 hours"}]}
{"molecule": "VEGF", "values": [{"measurement": "F-actin staining pattern", "setting": "[4]", "value": "strong stress fiber development"}, {"measurement": "effect on VE-cadherin phosphorylation", "setting": "VE-Cadherin", "value": "caused an even greater increase in VE-cadherin phosphorylation"}, {"measurement": "Relative intensity - SYPRO results (total protein)", "setting": "VE-Cadherin; Nil (ethanol control) 1.00", "value": 0.84}]}
{"molecule": "TNFα", "values": [{"measurement": "F-actin staining pattern", "setting": "[5]", "value": "strong stress fiber development with intensely staining focal points"}]}
{"molecule": "C[C@]12CC[C@@H]3c4ccc(O)cc4C[C@@H](CCCCCCCCC[S+]([O-])CCCC(F)(F)C(F)(F)F)[C@H]3[C@@H]1CC[C@@H]2O", "note": "(stereo partly drawn) [Fluvestrant, fluvestrant]", "values": [{"measurement": "effect on TER compared to the control", "setting": "[1]", "value": "essentially no effect"}, {"measurement": "effect on TER compared to the control", "setting": "[6]", "value": "increased the TER measurements"}]}
{"molecule": "CC(C)(O)C(=O)Nc1ccc([N+](=O)[O-])c(C(F)(F)F)c1", "note": "[Hydroxyflutamide, hydroxyflutamide]", "values": [{"measurement": "effect on TER compared to the control", "setting": "[1]", "value": "reduced the readings"}, {"measurement": "effect on TER compared to the control", "setting": "[6]", "value": "reduced the readings"}]}
